Results taken from patent US11753411B2, “Substituted pyrazolo[1,5-a]pyrimidines as TYK2 pseudokinase ligands” (Ventyx Biosciences, Inc., priority 2019, dated 2023).

Each compound was assayed on IFN-a/Jak1 Tyk2 (assay: Co-stimulation assay in lysed whole blood: IFNa (JAK1/TYK2) stimulated STAT1 phosphorylation). Settings: Homo sapiens, 20 min, 100 ng/mL IFNa (with 10 ng/mL GM-CSF), pSTAT by flow cytometry.
Format: cell-based
How it was run: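 Lysed human whole blood (RBC-lysed, resuspended in cRPMI) pre-incubated with compound 1 h at 37 °C, then stimulated 20 min with IFNa 100 ng/mL plus GM-CSF 10 ng/mL (final). Fixed, permeabilised, stained for pSTAT1 (PE) and pSTAT5 (AF488); flow cytometry read-out, ≥5,000–10,000 cells acquired.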

Row | Compound | IC50 [µM]
1 | [2H]C([2H])([2H])Nc1cc(Nc2cccc3c2OCCO3)nc2c(NC(=O)N[C@@H]3C[C@@H]3F)cnn12 [Compound 40, 1-(5-((2,3-dihydrobenzo[b][1,4]dioxin-5-yl)amino)-7-((methyl-d3)amino)pyrazolo[1,5-a]pyrimidin-3-yl)-3-((1R,2S)-2-fluorocyclopropyl)urea] | < 1
2 | CNc1cc(Nc2cccc3c2OCCO3)nc2c(NC(=O)NC3CC(=O)C3)cnn12 [Compound 36, 1-(5-((2,3-dihydrobenzo[b][1,4]dioxin-5-yl)amino)-7-(methylamino)pyrazolo[1,5-a]pyrimidin-3-yl)-3-(3-oxocyclobutyl)urea] | < 1
3 | CNC(=O)Nc1cnn2c(NC)cc(Nc3ccccc3Oc3ccccc3)nc12 [Compound 161, 1-methyl-3-(7-(methylamino)-5-((2-phenoxyphenyl)amino)pyrazolo[1,5-a]pyrimidin-3-yl)urea] | 1 to 10
4 | CNC(=O)Nc1cnn2c(NC)cc(Nc3cc(C4CC4)cc4c3OCCO4)nc12 [Compound 96, 1-(5-((7-cyclopropyl-2,3-dihydrobenzo[b][1,4]dioxin-5-yl)amino)-7-(methylamino)pyrazolo[1,5-a]pyrimidin-3-yl)-3-methylurea] | < 1
5 | [2H]C([2H])([2H])Nc1cc(-c2cn(C3CCOCC3)c3ncccc23)nc2c(NC(=O)NC)cnn12 [Compound 73, 1-methyl-3-(7-((methyl-d3)amino)-5-(1-(tetrahydro-2H-pyran-4-yl)-1H-pyrrolo[2,3-b]pyridin-3-yl)pyrazolo[1,5-a]pyrimidin-3-yl)urea] | < 1
6 | CNC(=O)Nc1cnn2c(NC)cc(Nc3ccccc3OC)nc12 [Compound 149, 1-(5-((2-methoxyphenyl)amino)-7-(methylamino)pyrazolo[1,5-a]pyrimidin-3-yl)-3-methylurea] | < 1
7 | CNc1cc(Nc2cc(C(F)(F)F)cc3c2OCCO3)nc2c(NC(=O)NC3CC3)cnn12 [Compound 82, 1-cyclopropyl-3-(7-(methylamino)-5-((7-(trifluoromethyl)-2,3-dihydrobenzo[b][1,4]dioxin-5-yl)amino)pyrazolo[1,5-a]pyrimidin-3-yl)urea] | 1 to 10
8 | CNc1cc(Nc2cccc3c2OCCO3)nc2c(NC(=O)NC3(C#N)CC3)cnn12 [Compound 28, 1-(1-cyanocyclopropyl)-3-(5-((2,3-dihydrobenzo[b][1,4]dioxin-5-yl)amino)-7-(methylamino)pyrazolo[1,5-a]pyrimidin-3-yl)urea] | ≥ 10
9 | CNC(=O)Nc1cnn2c(NC)cc(Nc3cccc4occc34)nc12 [Compound 104, 1-(5-(benzofuran-4-ylamino)-7-(methylamino)pyrazolo[1,5-a]pyrimidin-3-yl)-3-methylurea] | < 1
10 | CNc1cc(Nc2cccc3c2OCCO3)nc2c(NC(N)=O)cnn12 [Compound 10, 1-(5-((2,3-dihydrobenzo[b][1,4]dioxin-5-yl)amino)-7-(methylamino)pyrazolo[1,5-a]pyrimidin-3-yl)urea] | < 1
11 | CNc1cc(Nc2cccc3cccnc23)nc2c(NC(=O)NCC#N)cnn12 [Compound 127, 1-(cyanomethyl)-3-(7-(methylamino)-5-(quinolin-8-ylamino)pyrazolo[1,5-a]pyrimidin-3-yl)urea] | < 1
12 | CNc1cc(Nc2cc(F)cc3c2OCCO3)nc2c(NC(=O)NC3CCC3)cnn12 [Compound 105, 1-cyclobutyl-3-(5-((7-fluoro-2,3-dihydrobenzo[b][1,4]dioxin-5-yl)amino)-7-(methylamino)pyrazolo[1,5-a]pyrimidin-3-yl)urea] | < 1
13 | CNC(=O)Nc1cnn2c(NC)cc(Nc3cccc4c3NC(=O)CO4)nc12 [Compound 95, 1-methyl-3-(7-(methylamino)-5-((3-oxo-3,4-dihydro-2H-benzo[b][1,4]oxazin-5-yl)amino)pyrazolo[1,5-a]pyrimidin-3-yl)urea] | 1 to 10
14 | CNC(=O)Nc1cnn2c(NC)cc(NC(=O)c3ccccc3)nc12 [Compound 167, N-(7-(methylamino)-3-(3-methylureido)pyrazolo[1,5-a]pyrimidin-5-yl)benzamide] | 1 to 10
15 | CNc1cc(Nc2c(F)c(F)cc(F)c2F)nc2c(NC(=O)N[C@@H]3C[C@@H]3F)cnn12 [Compound 38, 1-((1R,2S)-2-fluorocyclopropyl)-3-(7-(methylamino)-5-((2,3,5,6-tetrafluorophenyl)amino)pyrazolo [1,5-a]pyrimidin-3-yl)urea] | 1 to 10
16 | CNC(=O)Nc1cnn2c(NC)cc(Nc3cccc4c3N(C)CCO4)nc12 [Compound 163, 1-methyl-3-(5-((4-methyl-3,4-dihydro-2H-benzo[b][1,4]oxazin-5-yl)amino)-7-(methylamino)pyrazolo[1,5-a]pyrimidin-3-yl)urea] | 1 to 10
17 | CNC(=O)Nc1cnn2c(NC)cc(Nc3ccccc3OC(C)C)nc12 [Compound 162, 1-(5-((2-isopropoxyphenyl)amino)-7-(methylamino)pyrazolo[1,5-a]pyrimidin-3-yl)-3-methylurea] | 1 to 10
18 | CNc1cc(Nc2cc(F)cc3c2OCCO3)nc2c(NC(=O)NC3CCC3C#N)cnn12 (stereo not shown) [Compound 46, 1-(2-cyanocyclobutyl)-3-(5-((7-fluoro-2,3-dihydrobenzo[b][1,4]dioxin-5-yl)amino)-7-(methylamino)pyrazolo[1,5-a]pyrimidin-3-yl)urea] | 1 to 10
19 | CNc1cc(Nc2cccc3c2OCCO3)nc2c(NC(=O)NCC(C)(C)CO)cnn12 [Compound 141, 1-(5-((2,3-dihydrobenzo[b][1,4]dioxin-5-yl)amino)-7-(methylamino)pyrazolo[1,5-a]pyrimidin-3-yl)-3-(3-hydroxy-2,2-dimethylpropyl)urea] | 1 to 10
20 | CNC(=O)Nc1cnn2c(NC)cc(Nc3cccc4c3OCCO4)nc12 [Compound 7, 1-(5-((2,3-dihydrobenzo[b][1,4]dioxin-5-yl)amino)-7-(methylamino)pyrazolo[1,5-a]pyrimidin-3-yl)-3-methylurea] | < 1
21 | CNC(=O)Nc1cnn2c(NC)cc(Nc3cccc4c3OCC(=O)N4)nc12 [Compound 98, 1-methyl-3-(7-(methylamino)-5-((3-oxo-3,4-dihydro-2H-benzo[b][1,4]oxazin-8-yl)amino)pyrazolo[1,5-a]pyrimidin-3-yl)urea] | 1 to 10
22 | CNc1cc(Nc2cccc3c2OCCO3)nc2c(NC(=O)N[C@H]3CC[C@H]3O)cnn12 [Compound 59, 1-(5-((2,3-dihydrobenzo[b][1,4]dioxin-5-yl)amino)-7-(methylamino)pyrazolo[1,5-a]pyrimidin-3-yl)-3-((1S,2R)-2-hydroxycyclobutyl)urea] | 1 to 10
23 | CNC(=O)Nc1cnn2c(NC)cc(Nc3cccc4c3CCCC4)nc12 [Compound 170, 1-methyl-3-(7-(methylamino)-5-((5,6,7,8-tetrahydronaphthalen-1-yl)amino)pyrazolo[1,5-a]pyrimidin-3-yl)urea] | 1 to 10
24 | CNc1cc(Nc2cccc3c2OCCO3)nc2c(NC(=O)NCC3(C#N)CC3)cnn12 [Compound 138, 1-((1-cyanocyclopropyl)methyl)-3-(5-((2,3-dihydrobenzo[b][1,4]dioxin-5-yl)amino)-7-(methylamino)pyrazolo[1,5-a]pyrimidin-3-yl)urea] | < 1

Same assay, conditions: lysed human whole blood; 100 ng/mL IFNa (with 10 ng/mL GM-CSF), 20 minutes; pSTAT by flow cytometry

Row | Compound | IC50 [µM]
25 | CNc1cc(Nc2c(F)ccc3c2OCCO3)nc2c(NC(=O)NCC#N)cnn12 [Compound 136, 1-(cyanomethyl)-3-(5-((6-fluoro-2,3-dihydrobenzo[b][1,4]dioxin-5-yl)amino)-7-(methylamino)pyrazolo[1,5-a]pyrimidin-3-yl)urea] | 1 to 10
